Results: patent US20240140953A1, “INHIBITORS OF MENIN-MLL INTERACTION” (BIOMEA FUSION, INC., priority 2018, published 2024)
Read-outs that look alike come from different tables or passages of the source.

Tests used:
[1] = test system: MV-4-11; assay: Long term proliferation assay (Table 3A), MV-4-11; type: cell-based; conditions: Homo sapiens, MV4-11
Method: (§1) Example 5b: IC50 determination of compounds of invention in various cell lines (Long Term Proliferation Assay)
(§2) The following 5 cell lines are used or can be used for the long term proliferation assay.
(§3) Compounds of invention are tested in the 5 suspension lines by 14-day long-term proliferation assay.
(§4) The compound is tested in 10-pt dose titration (client will determine the starting concentration and the dilution scheme) and the final DMSO concentration is kept at 0.2%.
(§5) Vehicle and media control are also included. All treatments are done in triplicate.
(§6) 3 plates are used for each cell line and 15 plates are used for the 5 cell lines.
(§7) • 1) On Day 0, in a flat bottom 96-well plate, add 100 μL of cells per well at the densities optimized. • 2) Prepare compounds in DMSO at 500× final concentration. Dilute the compounds with DMSO at the dilution. • 3) Dilute the compounds in media at 3×final concentration. Add 50 μL of compound or DMSO at 3× final concentration to each well. Final volume in each well is 150 μL, and final concentration of DMSO is 0.2%. Also include 3 untreated control wells, by adding 50 μL of media alone. 4) Incubate plates for 96 hours. • 5) Count the cells using the Acumen, with capabilities for 96-well plates. Pipette cells up and down to mix in each well, and add desired volume of cells to a new flat bottom poly-D-lysine 96-well plate. Add Calcein AM at 1 μM final concentration. Let cells sit at RT for 10 mins followed by a quick spin to get cells settled on the bottom of the wells. Incubate the plate for additional 40 mins in the incubator. Take out the plate and read by Acumen. Calculate the cell numbers taken into account the dilution factors. • 6) Split the master plate. To do this take the total viable cell count calculated using step 5). Take the average of the replicates for each dose in order to be used in splitting the cells. • 7) Use a 96 well V-bottom plate to spin down the cells to remove old media and compound to split the cells. Based on the split ratio place the proper amount of media and cells into the V-bottom plate, and spin the plate at 1100 rpm for 5 minutes. • 8) Following the spin remove the media, careful not to disturb the cellpellet. • 9) Re-suspend pellet in 100 μL fresh media, and add to a new 96-well flat bottom plate. • 10) Add fresh compound, in the same manner as Step 3). • 11) Incubate plates for 72 hours. Repeat steps 5)-10) on Day 7. • 12) Incubate plates for 96 hours. Repeat Step 5)-10) on Day 11. • 13) Incubate 72 hours and repeat step 5) to take a final count. • 14) Data Analysis
(§8) To calculate growth for days 4, 7, 11, and 14: • Calculate the split factor for day 4 to 7, day 7 to 11, and day 11-14.

[2] = test system: MOLM-13; assay: Long term proliferation assay (Table 3A), MOLM-13; type: cell-based; conditions: Homo sapiens
Method: as §1, §2, §3, §4, §5, §6, §7, §8

[3] = MV-4-11, Day 4, read-out: MV-4-11 Day 4 IC50
[4] = MV-4-11, Day 11, read-out: MV-4-11 Day 11 IC50
[5] = 96 h, MOLM-13, Day 4, read-out: MOLM-13 Day 4 IC50
[6] = 264 h, MOLM-13, Day 11, read-out: MOLM-13 Day 11 IC50

Row | SMILES | IC50 [1, 3] [µM] | IC50 [1, 4] [µM] | IC50 [2, 5] [µM] | IC50 [2, 6] [µM]
1 | CC(C)c1c(-c2cccnc2)noc1NC(=O)Nc1ccc(-c2cc3c(N4CCOCC4)ncnc3[nH]2)cc1 [Compound 6, 1-{4-[4-(morpholin-4-yl)-7H-pyrrolo[2,3-d]pyrimidin-6-yl]phenyl}-3-[4-(propan-2-yl)-3-(pyridin-3-yl)-1,2-oxazol-5-yl]urea] | 0.229 | 0.074 | 0.178 | 0.05
2 | O=C(Cc1cc(-c2cccnc2)no1)Nc1ccc(-c2cc3c(N4CCOCC4)ncnc3[nH]2)cc1 [Compound 5, N-{4-[4-(morpholin-4-yl)-7H-pyrrolo[2,3-d]pyrimidin-6-yl]phenyl}-2-[3-(pyridin-3-yl)-1,2-oxazol-5-yl]acetamide] | 0.129 | 0.066 | 0.115 | 0.032
3 | CC(C)c1cc(-c2cc3c(N4CCOCC4)ncnc3[nH]2)ccc1NC(=O)Nc1cc(-c2cccnc2)no1 [Compound 7, 1-{4-[4-(morpholin-4-yl)-7H-pyrrolo[2,3-d]pyrimidin-6-yl]-2-(propan-2-yl)phenyl}-3-[3-(pyridin-3-yl)-1,2-oxazol-5-yl]urea] | 0.891 | 0.631 | 0.933 | 0.871
